# Bridge positions count the residues as written; N and C are the ends. Peptide text beside a SMILES is read from it.
# Assays:
# [1] = target: Sodium channel protein type 9 subunit alpha (Homo sapiens, UniProt Q15858); experiment: Inhibition of human NaV1.7 at -140 mV holding potential by whole-cell patch clamp assay
# [2] = target: Sodium channel protein type 5 subunit alpha (Homo sapiens, UniProt Q14524); experiment: Inhibition of human NaV1.5 at -140 mV holding potential by whole-cell patch clamp assay
# Chain of Sodium channel protein type 5 subunit alpha (Q14524 whole entry): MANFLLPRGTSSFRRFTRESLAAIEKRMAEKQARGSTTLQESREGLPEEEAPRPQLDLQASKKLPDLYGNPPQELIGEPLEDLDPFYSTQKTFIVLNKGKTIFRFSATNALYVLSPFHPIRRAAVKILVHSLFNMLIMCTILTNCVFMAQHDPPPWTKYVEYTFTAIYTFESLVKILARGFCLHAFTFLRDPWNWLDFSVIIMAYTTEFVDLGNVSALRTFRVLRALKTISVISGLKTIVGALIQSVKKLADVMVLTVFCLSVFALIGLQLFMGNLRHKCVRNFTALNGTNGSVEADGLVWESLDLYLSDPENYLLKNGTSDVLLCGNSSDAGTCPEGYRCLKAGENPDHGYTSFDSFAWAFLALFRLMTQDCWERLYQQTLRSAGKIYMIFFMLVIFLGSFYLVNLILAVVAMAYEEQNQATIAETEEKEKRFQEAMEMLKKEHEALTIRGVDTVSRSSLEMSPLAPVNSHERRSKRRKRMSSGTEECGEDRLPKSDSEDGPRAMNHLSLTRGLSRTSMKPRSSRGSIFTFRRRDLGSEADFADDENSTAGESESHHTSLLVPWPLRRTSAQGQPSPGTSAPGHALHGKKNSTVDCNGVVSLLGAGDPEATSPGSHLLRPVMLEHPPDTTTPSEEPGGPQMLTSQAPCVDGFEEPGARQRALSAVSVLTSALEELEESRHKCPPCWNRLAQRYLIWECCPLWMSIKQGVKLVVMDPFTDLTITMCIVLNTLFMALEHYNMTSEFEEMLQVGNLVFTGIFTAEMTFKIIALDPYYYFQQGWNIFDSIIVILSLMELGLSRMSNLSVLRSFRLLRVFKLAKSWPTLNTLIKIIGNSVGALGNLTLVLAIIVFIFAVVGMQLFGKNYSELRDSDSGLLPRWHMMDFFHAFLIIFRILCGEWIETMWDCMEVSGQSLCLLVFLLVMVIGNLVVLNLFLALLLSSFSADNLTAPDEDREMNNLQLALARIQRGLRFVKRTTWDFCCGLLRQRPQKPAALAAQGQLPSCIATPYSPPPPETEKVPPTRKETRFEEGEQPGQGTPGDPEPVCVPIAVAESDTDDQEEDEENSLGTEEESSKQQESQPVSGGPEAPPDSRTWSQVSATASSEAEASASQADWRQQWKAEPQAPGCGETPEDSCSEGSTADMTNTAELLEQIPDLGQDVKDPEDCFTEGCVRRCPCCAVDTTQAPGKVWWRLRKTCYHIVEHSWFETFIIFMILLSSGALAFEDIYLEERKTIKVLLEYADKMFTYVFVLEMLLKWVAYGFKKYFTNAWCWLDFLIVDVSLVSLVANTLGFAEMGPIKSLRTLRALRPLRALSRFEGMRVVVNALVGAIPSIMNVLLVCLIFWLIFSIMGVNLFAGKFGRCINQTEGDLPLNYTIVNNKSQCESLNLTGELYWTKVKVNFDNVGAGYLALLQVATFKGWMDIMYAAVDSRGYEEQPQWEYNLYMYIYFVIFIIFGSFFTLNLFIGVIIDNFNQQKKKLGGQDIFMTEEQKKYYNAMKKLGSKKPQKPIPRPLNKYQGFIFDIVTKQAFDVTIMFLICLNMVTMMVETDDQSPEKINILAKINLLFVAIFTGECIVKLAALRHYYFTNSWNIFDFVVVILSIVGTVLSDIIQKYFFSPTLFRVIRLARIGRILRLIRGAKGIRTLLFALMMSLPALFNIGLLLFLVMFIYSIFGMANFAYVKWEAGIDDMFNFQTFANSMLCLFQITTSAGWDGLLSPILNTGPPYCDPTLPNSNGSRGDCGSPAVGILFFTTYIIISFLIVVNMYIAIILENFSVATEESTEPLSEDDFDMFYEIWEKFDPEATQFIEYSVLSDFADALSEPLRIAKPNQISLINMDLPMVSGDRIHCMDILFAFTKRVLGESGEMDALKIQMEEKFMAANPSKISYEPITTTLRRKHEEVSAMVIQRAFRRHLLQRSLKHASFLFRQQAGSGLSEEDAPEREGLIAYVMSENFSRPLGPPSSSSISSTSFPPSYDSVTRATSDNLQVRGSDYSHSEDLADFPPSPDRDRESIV
# Chain of Sodium channel protein type 9 subunit alpha (Q15858 whole entry): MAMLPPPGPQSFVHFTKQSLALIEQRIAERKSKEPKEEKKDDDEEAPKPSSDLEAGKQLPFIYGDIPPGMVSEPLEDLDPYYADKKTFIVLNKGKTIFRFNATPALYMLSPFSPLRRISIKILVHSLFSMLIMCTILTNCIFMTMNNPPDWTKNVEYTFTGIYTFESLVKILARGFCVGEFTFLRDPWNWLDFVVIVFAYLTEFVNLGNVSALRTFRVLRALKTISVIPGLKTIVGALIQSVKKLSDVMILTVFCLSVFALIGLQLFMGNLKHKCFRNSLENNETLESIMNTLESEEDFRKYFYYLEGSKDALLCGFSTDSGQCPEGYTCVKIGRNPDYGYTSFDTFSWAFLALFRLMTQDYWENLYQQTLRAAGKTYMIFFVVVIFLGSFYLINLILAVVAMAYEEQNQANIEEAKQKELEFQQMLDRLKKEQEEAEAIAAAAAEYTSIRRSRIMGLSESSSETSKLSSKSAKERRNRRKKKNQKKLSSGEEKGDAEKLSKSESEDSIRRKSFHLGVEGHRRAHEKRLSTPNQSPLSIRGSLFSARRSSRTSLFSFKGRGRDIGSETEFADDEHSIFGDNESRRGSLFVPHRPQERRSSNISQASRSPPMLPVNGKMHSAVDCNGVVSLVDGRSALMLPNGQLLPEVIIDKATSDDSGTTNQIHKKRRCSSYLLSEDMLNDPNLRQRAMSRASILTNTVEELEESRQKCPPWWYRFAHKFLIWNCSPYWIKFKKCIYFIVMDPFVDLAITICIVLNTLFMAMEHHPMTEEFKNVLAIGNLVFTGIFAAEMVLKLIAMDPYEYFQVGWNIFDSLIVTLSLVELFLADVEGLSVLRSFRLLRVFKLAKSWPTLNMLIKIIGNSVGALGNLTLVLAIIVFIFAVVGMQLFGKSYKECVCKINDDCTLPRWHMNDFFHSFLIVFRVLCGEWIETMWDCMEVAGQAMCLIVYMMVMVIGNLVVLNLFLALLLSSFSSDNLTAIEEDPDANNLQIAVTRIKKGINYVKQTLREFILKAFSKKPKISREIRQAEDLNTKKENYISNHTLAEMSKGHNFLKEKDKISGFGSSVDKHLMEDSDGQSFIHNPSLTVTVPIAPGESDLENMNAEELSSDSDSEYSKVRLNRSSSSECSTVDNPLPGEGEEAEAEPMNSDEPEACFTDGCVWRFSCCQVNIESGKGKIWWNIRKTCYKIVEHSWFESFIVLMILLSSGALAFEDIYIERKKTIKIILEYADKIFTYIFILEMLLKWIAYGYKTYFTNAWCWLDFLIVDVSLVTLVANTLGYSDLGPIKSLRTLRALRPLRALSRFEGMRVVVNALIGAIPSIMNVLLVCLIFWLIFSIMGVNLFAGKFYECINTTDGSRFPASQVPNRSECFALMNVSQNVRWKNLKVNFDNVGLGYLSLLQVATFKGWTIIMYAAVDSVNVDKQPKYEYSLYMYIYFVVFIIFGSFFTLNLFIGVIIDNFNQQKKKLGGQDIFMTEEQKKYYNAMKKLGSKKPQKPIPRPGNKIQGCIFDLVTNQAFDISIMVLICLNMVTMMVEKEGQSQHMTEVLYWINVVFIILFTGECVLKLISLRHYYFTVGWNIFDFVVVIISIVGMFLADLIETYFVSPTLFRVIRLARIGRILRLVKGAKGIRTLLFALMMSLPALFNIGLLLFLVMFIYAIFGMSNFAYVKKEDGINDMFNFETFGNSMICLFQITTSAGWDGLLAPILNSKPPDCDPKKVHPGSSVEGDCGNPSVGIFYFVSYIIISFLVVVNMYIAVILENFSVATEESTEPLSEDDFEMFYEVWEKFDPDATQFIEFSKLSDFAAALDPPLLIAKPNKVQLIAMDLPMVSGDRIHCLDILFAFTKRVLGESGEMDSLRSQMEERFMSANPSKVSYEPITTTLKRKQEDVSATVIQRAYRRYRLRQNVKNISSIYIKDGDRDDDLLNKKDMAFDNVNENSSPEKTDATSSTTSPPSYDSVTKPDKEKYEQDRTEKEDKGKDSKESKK
SMILES,IC50 [1] [nM],IC50 [2] [nM]
CC[C@H](C)[C@@H]1NC(=O)[C@@H]2CSSC[C@@H]3NC(=O)[C@H](C(C)C)NC(=O)[C@H](CC(C)C)NC(=O)[C@H](CC(N)=O)NC(=O)[C@@H]4CCCN4C(=O)[C@H](CCCNC(=N)N)NC(=O)[C@H](CSSC[C@H](NC(=O)[C@@H](N)CC(=O)O)C(=O)N[C@@H](CC(C)C)C(=O)NCC(=O)N[C@@H](Cc4ccccc4)C(=O)N[C@@H](Cc4cccc5ccccc45)C(=O)N[C@@H](CCCNC(=N)N)C(=O)N[C@@H](CCCCN)C(=O)N2)NC(=O)[C@H](CSSC[C@@H](C(=O)N[C@@H](CCCCN)C(=O)N[C@@H](Cc2ccc(O)cc2)C(=O)N[C@H](C(=O)N[C@@H](Cc2ccccc2)C(N)=O)C(C)C)NC(=O)[C@H](Cc2c[nH]c4ccccc24)NC(=O)[C@H](CCCCN)NC(=O)[C@H](Cc2cnc[nH]2)NC(=O)[C@H]([C@@H](C)O)NC(=O)[C@H](CCCNC(=N)N)NC(=O)[C@H](CO)NC3=O)NC(=O)[C@H](CCCCN)NC(=O)[C@H](CC(=O)O)NC(=O)[C@H](CC(N)=O)NC(=O)[C@H](CC(=O)O)NC(=O)[C@@H]2CCCN2C1=O,4,400
"CC[C@H](C)[C@@H]1NC(=O)[C@@H]2CSSC[C@@H]3NC(=O)[C@H](C(C)C)NC(=O)[C@H](CC(C)C)NC(=O)[C@H](CC(N)=O)NC(=O)[C@@H]4CCCN4C(=O)[C@H](CCCNC(=N)N)NC(=O)[C@H](CSSC[C@H](NC(=O)[C@@H](N)CC(=O)O)C(=O)N[C@@H](CC(C)C)C(=O)NCC(=O)N[C@@H](C)C(=O)N[C@@H](CCSC)C(=O)N[C@@H](CCCNC(=N)N)C(=O)N[C@@H](CCCCN)C(=O)N2)NC(=O)[C@H](CSSC[C@@H](C(=O)N[C@@H](CCCCN)C(=O)N[C@@H](Cc2ccc(O)cc2)C(=O)N[C@H](C(=O)N[C@@H](Cc2ccccc2)C(N)=O)C(C)C)NC(=O)[C@H](Cc2c[nH]c4ccccc24)NC(=O)[C@H](CCCCN)NC(=O)[C@H](Cc2cnc[nH]2)NC(=O)[C@H](CC(C)C)NC(=O)[C@H](CCCNC(=N)N)NC(=O)[C@H](CO)NC3=O)NC(=O)[C@H](CCCCN)NC(=O)[C@H](CC(=O)O)NC(=O)[C@H](CC(N)=O)NC(=O)[C@H](CC(=O)O)NC(=O)[C@@H]2CCCN2C1=O (H-DCLGAMRKCIPDNDKCCRPNLVCSRLHKWCKYVF-NH2; disulfide 2-17, 9-23, 16-30)",54,> 10000
"CC[C@H](C)[C@@H]1NC(=O)[C@@H]2CSSC[C@@H]3NC(=O)[C@H](C(C)C)NC(=O)[C@H](CC(C)C)NC(=O)[C@H](CC(N)=O)NC(=O)[C@@H]4CCCN4C(=O)[C@H](CCCNC(=N)N)NC(=O)[C@H](CSSC[C@H](NC(=O)[C@@H](N)CC(=O)O)C(=O)N[C@@H](CC(C)C)C(=O)NCC(=O)N[C@@H](Cc4ccccc4)C(=O)N[C@@H](CCSC)C(=O)N[C@@H](CCCNC(=N)N)C(=O)N[C@@H](CCCCN)C(=O)N2)NC(=O)[C@H](CSSC[C@@H](C(=O)N[C@@H](C)C(=O)N[C@@H](Cc2ccc(O)cc2)C(=O)N[C@H](C(=O)N[C@@H](Cc2ccccc2)C(N)=O)C(C)C)NC(=O)[C@H](Cc2c[nH]c4ccccc24)NC(=O)[C@H](CCCCN)NC(=O)[C@H](Cc2cnc[nH]2)NC(=O)[C@H]([C@@H](C)O)NC(=O)[C@H](CCCNC(=N)N)NC(=O)[C@H](CO)NC3=O)NC(=O)[C@H](CCCCN)NC(=O)[C@H](CC(=O)O)NC(=O)[C@H](CC(N)=O)NC(=O)[C@H](CC(=O)O)NC(=O)[C@@H]2CCCN2C1=O (H-DCLGFMRKCIPDNDKCCRPNLVCSRTHKWCAYVF-NH2; disulfide 2-17, 9-23, 16-30)",> 5000,> 5000
